{
  "source": "patent US20090062309A1",
  "about": "“Therapeutic compositions for the treatment of cardiovascular diseases and methods for use therefor” (priority 2007, published 2009)",
  "tested_on": "subjects with CHD having decreased RBC K+ content",
  "test": "Single-Blind Trial of Amiloride in Coronary Heart Disease During 2-Year Follow-Up",
  "format": "in vivo, human",
  "experimental": "Subjects were evaluated by clinical (CCS angina Class, dyspnea, and arrhythmia). Other non CHD causes of chest pain, dyspnea, and arrhythmia had been ruled out. Safety control were serial ECG, non-invasive hemodynamics (DynaPulse 200A, CA, USA), Ion Transport Study (plasma and RBC electrolytes, 12-hour urine volume and electrolyte excretion, and plasma and urine creatinine and osmolality), BIA for Body Composition Analysis and estimation of Total Body K^+ (Quantum X, RJL Systems), and Clinical Biochemistry (FPG, Lipids, Uric acid), were measured at 1, 3, 6, 12, 18, 24 months follow-up period.\nAfter written consent, each patient entered this single-blind trial directed to reverse or improve angina and other symptoms of CHD, as well as the ECG alterations of ischemia, and if possible in long-term assay, on improved LV motion/contractility in the echocardiography studies.\nAll cases had: a) Serial ECG for LVH by Cornell or Sokolow-Lyon Criteria (QRS duration times Cornell voltage: [R aVL+ SV3, with 6 mm added in women, >2440 mm×ms], Sokolow-Lyon voltage: [SV1+RV5/V6]> 38 mm; along with LV strain pattern [classical ST-segment depressed, with inverted T-waves], or LVH voltage criteria with mild LV strain pattern (isoelectric, biphasic or non-symmetrical negative T-waves, without ST-segment depression), and ECG criteria for infarction and/or ischemia (Q-waves from previous AMI, decreased R-wave height, non-progressive R-wave voltages in precordial leads, ST-segment elevation […] often referred as injury current, ST-segment depression […] often downsloping from the J point, rectification of the ST segment, and isoelectric, biphasic, negative or inverted T-waves, intraventricular conduction disturbance, and arrhythmias); b) Non-invasive hemodynamic study (DP200M) for cardiac parameters (LV Ejection Time [LVET], LV dP/dT (LV delta pressure-time), Cardiac output and index (CO, Cl), Stroke Volume (SV), Pulse Wave Analysis (PWA) of Central Aortic Blood Pressure [BP], Aortic Systolic (SBP), Diastolic (DBP) and mean (m) BP, Aortic augmentation index; inflection point and reflected wave analysis, Systemic Vascular Resistance and Compliance (SVR/SVC), and Brachial Artery Distensibility (BAD), Brachial Artery Compliance (BAC); c) Ion Transport Studies for RBC (K^+, Na^+) plasma (K^+, Na^+, Cl^−, ICa^2+, Mg^2+), and 12-hours night urinary volume (K^+, Na^+, Cl^−, pH), d) Bio-Impedance Analysis (BIA, Quantum X, RJL Systems, MI, USA) for Total body Potassium, Total body water/Extracellular Water, Fat Mass (FM) and Fat-Free Mass (FFM) and e) Echocardiography was obtained at entry, 6 and 12, 24 months periods.\nThe statistical analysis was performed using the Student's t-test and analysis of variance. To reduce the probability of significant differences arising by chance, Bonferroni's correction was applied following analysis of variance. All measurement are presented as the mean±S.D., and differences were considered significant when p<0.05.",
  "note": "“And” between values parts separate entries of the source, which are not always exact repeats. Equal values may be shown once. “Also recorded” adds a separate entry of the source.",
  "data": [
    {"smiles": "Cl.NC(N)=NC(=O)c1nc(Cl)c(N)nc1N.O.O", "note": "[Amiloride, 3,5-diamino-6-chloro-N-(diaminomethylene) pyrazinecarboxamide monohydrochloride, dihydrate]", "values": [
      {"measurement": "Days for Improvement, Percentage (%)", "setting": "2-year trial, n=52", "value": 86.5, "unit": "%"},
      {"measurement": "EGG Alterations: Improved Changes, Number", "setting": "2-year trial, n=52", "value": 23},
      {"measurement": "EGG Alterations: Improved Changes, Percentage (%)", "setting": "2-year trial, n=52", "value": 44.2, "unit": "%"},
      {"measurement": "EGG Alterations: Reverted to Normal, Number", "setting": "2-year trial, n=52", "value": 18},
      {"measurement": "EGG Alterations: Reverted to Normal, Percentage (%)", "setting": "2-year trial, n=52", "value": 34.5, "unit": "%"},
      {"measurement": "EGG Alterations: Unchanged/Worst, Number", "setting": "2-year trial, n=52", "value": 10},
      {"measurement": "EGG Alterations: Unchanged/Worst, Percentage (%)", "setting": "2-year trial, n=52", "value": 19.2, "unit": "%"},
      {"measurement": "EGG Alterations: Weeks for Improvement", "setting": "2-year trial, n=52", "value": "3.4 ± 1.5", "unit": "Weeks"},
      {"measurement": "EGG Alterations: Weeks for Improvement, Percentage (%)", "setting": "2-year trial, n=52", "value": 61, "unit": "%"},
      {"measurement": "Echocardiographic Changes: Altered Hypokinesia, Number", "setting": "2-year trial, n=52", "value": 34},
      {"measurement": "Echocardiographic Changes: Altered Hypokinesia, Percentage (%)", "setting": "2-year trial, n=52", "value": 65.5, "unit": "%"},
      {"measurement": "Echocardiographic Changes: Normal Contractility, Number", "setting": "2-year trial, n=52", "value": 18},
      {"measurement": "Echocardiographic Changes: Normal Contractility, Percentage (%)", "setting": "2-year trial, n=52", "value": 34.5, "unit": "%"},
      {"measurement": "Echocardiographic Changes: Reversed Hypokinesia, Number", "setting": "2-year trial, n=52", "value": 27},
      {"measurement": "Echocardiographic Changes: Reversed Hypokinesia, Percentage (%)", "setting": "2-year trial, n=52", "value": 52, "unit": "%"},
      {"measurement": "Echocardiographic Changes: Unchanged Hypokinesia, Number", "setting": "2-year trial, n=52", "value": 7},
      {"measurement": "Echocardiographic Changes: Unchanged Hypokinesia, Percentage (%)", "setting": "2-year trial, n=52", "value": 13.5, "unit": "%"},
      {"measurement": "Free of Angina (1-2 years), Number", "setting": "2-year trial, n=52", "value": 37},
      {"measurement": "Free of Angina (1-2 years), Percentage (%)", "setting": "2-year trial, n=52", "value": 71.2, "unit": "%"},
      {"measurement": "New CVD Events: ACS, Number", "setting": "2-year trial, n=52", "value": 7},
      {"measurement": "New CVD Events: ACS, Percentage (%)", "setting": "2-year trial, n=52", "value": 13.5, "unit": "%"},
      {"measurement": "New CVD Events: AMI/Stroke/Death, Number", "setting": "2-year trial, n=52", "value": 0},
      {"measurement": "New CVD Events: AMI/Stroke/Death, Percentage (%)", "setting": "2-year trial, n=52", "value": 0, "unit": "%"},
      {"measurement": "New CVD Events: None, Number", "setting": "2-year trial, n=52", "value": 41},
      {"measurement": "New CVD Events: None, Percentage (%)", "setting": "2-year trial, n=52", "value": 79, "unit": "%"},
      {"measurement": "New CVD Events: Ventricular Arrhythmias, Number", "setting": "2-year trial, n=52", "value": 5},
      {"measurement": "New CVD Events: Ventricular Arrhythmias, Percentage (%)", "setting": "2-year trial, n=52", "value": 9.6, "unit": "%"},
      {"measurement": "Reversion of Angina, Number", "setting": "2-year trial, n=52", "value": 43},
      {"measurement": "Reversion of Angina, Percentage (%)", "setting": "2-year trial, n=52", "value": 82.7, "unit": "%"},
      {"measurement": "Subjects with Angina: Days for Improvement", "setting": "2-year trial, n=52, Amiloride 5 to 10 mg/day", "value": "6.2 ± 3.5", "unit": "days"},
      {"measurement": "ECG change, single subject FIG. 14A", "setting": "Diabetic, inferior AMI, during admission in the Amiloride trial", "value": "improvement in the subject's antero-lateral ischemia"},
      {"measurement": "ECG after withdrawal, single subject FIG. 14B", "setting": "Diabetic, two months after withdrawal of Amiloride treatment", "value": "ECG alterations marked with arrows indicative of acute coronary syndrome and ventricular arrhythmias"},
      {"measurement": "ECG change, single subject FIG. 12B", "setting": "Person, 1-year post infarction, 5 months Amiloride, calcium and statins", "value": "significant ECG improvement of ST-segment, and T-waves (V1-V6)"},
      {"measurement": "ECG, single subject FIG. 12C", "setting": "Person, 18 months post AMI, Amiloride, calcium and statins, no other medication", "value": "essentially a normal ECG trace"},
      {"measurement": "Duke Treadmill Scores, single subject FIG. 12C", "setting": "Person, 18 months post AMI, Amiloride, calcium and statins, monohydrochloride, dihydrate", "value": "6.23 and 5.49"},
      {"measurement": "ECG change, single subject FIG. 13B", "setting": "Person, diabetes, angina, 5-months of Amiloride and statins", "value": "improvement of ischemic changes"},
      {"measurement": "DT Score, single subject FIG. 13B", "setting": "Person, 5-months of Amiloride and statins, score −3 before", "value": 2.3},
      {"measurement": "ECG after withdrawal, single subject FIG. 13C", "setting": "Person, after 6-months without Amiloride, optimal angina and diabetes medications", "value": "recurrence of ECG alterations"},
      {"measurement": "ECG after re-start, single subject FIG. 13C", "setting": "Person, three months after Amiloride was reinitiated", "value": "normal without ischemic changes"},
      {"measurement": "ECG change, single subject FIG. 11C", "setting": "person, infarction, angina, heart failure, 2-months Amiloride (5 mg) and calcium plus other medications", "value": "rapid reversion of ST-T alterations (V2-V6)"},
      {"measurement": "angina and heart failure symptoms, single subject FIG. 11C", "setting": "person, 2-months Amiloride (5 mg) and calcium, monohydrochloride, dihydrate", "value": "free of angina or symptoms of heart failure; also recorded: free of angina and symptoms of heart failure"},
      {"measurement": "Duke Treadmill Score, single subject FIG. 11C", "setting": "person, 2-months Amiloride (5 mg) and calcium, score −3 before entering trial", "value": "+4.3"}
    ]}
  ]
}
